In US20050118276A1, “Coated metal pyrithione particles for treatment of microorganisms” (Arch Chemicals, Inc., priority 2003, published 2005):

System: Malassezia furfur
Assay: comparative corneofungimetry bioassay on human stratum corneum strippings
Format: cell-based
Details: for Median positive fungal cells# from 20 samples: 9 days at 27° C., neutral red vital stain, counted by mm^2
[1] = 1% zinc pyrithione water suspension
[2] = formulated shampoo containing 1% zinc pyrithione

Procedure: As a more advanced test, “corneofungimetry” was used to evaluate the particles prepared in accordance with the Example and Comparative Examples. This test is a good pre-clinical screening method because it requires growing the Malassezia furfur sp on a substrate that is more representative of its natural environment. Cyanoacrylate is used to harvest a layer of skin, and these skin surface strippings are treated with olive oil to simulate sebum. The prepared skin samples are then treated with the actives under investigation, inoculated with the microorganism of interest and incubated.
The corneofungimetry bioassay was performed on normal stratum corneum harvested from 20 healthy volunteers using cyanoacrylate adhesive. Samples were dipped into olive oil and stored in a sterile environment for 3 days.
Malassezia furfur was cultured on MLNA (Modified Leeming and Notman Agar) medium. Suspensions of fungal cells were prepared in physiologic saline (10^4-10^5 cells/ml). Aliquots of 250 μl of these suspensions were deposited onto the stratum corneum samples and incubated under moist conditions at 27° C. for 9 days. Samples were then stained using neutral red as a vital stain identifying living fungi growing on the human stratum corneum. The number of positive fungal cells was counted by mm^2 using computerized image analysis (Analysis Olympus). The medians and ranges were determined. Between-product comparisons were performed using the paired non-parametric Friedman test followed by the Dunn test.

## zinc pyrithione [Uncoated]
[1]
  % killing compared to saline control: 44%
  Median positive fungal cells# from 20 samples: 451
[2]
  % killing compared to saline control: 52%
  Median positive fungal cells# from 20 samples: 363
